{"source": "patent US20230092005A1", "about": "“COMPOSITIONS AND METHODS FOR TREATING CANCER AND TUMOR” (OBLATO, INC., priority 2020, published 2023)", "key": {"[1]": {"test_system": "human A549 lung cancer xenografts", "experiment": "Hematoxylin & Eosin (H&E) staining of extracted A549 xenograft tumors (necrosis grading)", "type": "in vivo, BALB/c Nude mouse", "settings": "N=10", "text": "Histopathological test: The extracted tumors were fixed in 10% neutral buffered formalin solution (10% neutral buffered formalin). After sectioning the tumors to a certain thickness (about 3 mm), those were subjected to the general preparation procedure, embedded in paraffin, cut into 4 to 5 μm size, and tissue sections were stained with Hematoxylin and Eosin (H&E) and TUNEL. IHC (Immunohistochemistry) slides, cut into 4 to 5 μm size, were produced and sent to the sponsor (Negative Control Group (G1), Test substance 2 (G3, Animal ID Nos.: 1301, 1302, 1303, 1307, 1310), Test substance 3 (G4, Animal ID Nos.: 1401, 1402, 1404, 1408, 1409)). Determination of Hematoxylin & Eosin (H&E) staining results: Necrosis of tumors was assessed by grading (±, +, ++, +++, ++++) the extent of necrosis in the whole section of the tumor. Necrosis was evaluated by morphological changes such as collapse or disappearance of the nucleus and eosinophilic change of cytoplasm. The extent of tumor necrosis was determined by the percentage of the following necrosis area. Histopathological test (Table 7, FIGS. 7-11): The extracted fixed tumor was cut to a certain thickness (about 3 mm), then subjected to general tissue treatment, paraffin-embedded to produce blocks, and tissue sections of 4 to 5 μm in size were prepared. Then, Hematoxylin & Eosin (H&E) staining and TUNEL staining were performed."}, "[2]": {"test_system": "human A549 lung cancer xenografts", "experiment": "Anti-cancer efficacy in nude mice carrying human A549 lung cancer xenografts (tumor volume, tumor weight, growth inhibition rate)", "type": "in vivo, BALB/c Nude mouse", "settings": "for Tumor weights (mean): tumors weighed at day 29; for Tumor growth inhibition rate (IR): IR=(1-T/C)x100 from mean tumor weights, day 29", "procedure": "The anti-cancer efficacy of OKN-007 was assessed after oral administration in nude mice carrying human A549 lung cancer xenografts implanted subcutaneously in the flank. Human lung cancer cell line, A549 was used. […] The frozen cells were thawed in a water bath. Cells were placed in a tube containing the medium and centrifuged (1,000 rpm, 5 minutes) to discard the supernatant. After re-suspending with the culture medium, cells were placed in a cell culture flask and incubated in a 5% CO2 incubator at 37° C. Cells were sub-cultured at a ratio of 1:5 when grown with confluency of 70-80% in the culture container. Cells cultured on the day of cell line transplantation were centrifuged (1,000 rpm, 5 minutes) to discard the supernatant and to make cell suspension with D-PB S. Then, the cell suspension was mixed with Matrigel at a ratio of 1:1 (5×10^7 cells/mL). BALB/c Nude mouse, [NT]-Foxnlnu/CrlOri, SPF was used. Sex, number, age, and body weight range of animals at receipt: The mice (65 mice) were male, 5 weeks old, and had about 14.5-19.6 g weight at the receipt. Cell transplantation: After the quarantine-acclimation period, the body weight measurement and cell transplantation in healthy animals were performed. […] Prepared cell (1×10^7 cells/0.2 mL) suspension was injected subcutaneously into the right flank with disposable syringes. […] Group assignment: After transplanting cells, each tumor size was monitored for 65 animals. When tumor volume reached within 87-112 mm^3, 50 animals were assigned to the respective groups with an average tumor volume of about 99 mm^3. Based on the tumor volume, animals were selected and randomly distributed into 5 groups (10 animals/group). Dosing Route: Oral administration. The route of administration was oral because the clinical application of the test substance is oral. Method and frequency of administration: For negative control and test substance, oral administration was performed once a day for 4 weeks for a total of 28 times using a disposable syringe. For positive control, intraperitoneal administration was performed once a week for 4 weeks for a total of 4 times using a disposable syringe. Dosing Route: The dose levels of the test substance were selected at 150, 300, and 600 mg/kg. The dose level of the positive substance was selected at 2 mg/kg. The dose volume was selected at 10 mL/kg for all groups, and the individual dose was calculated based on the bodyweight of animals just prior to dosing. Measurement of tumor volume: The largest diameter (a) and the smallest diameter (b) of each tumor were measured using calipers twice a week during the observation period. The tumor volume (TV) was calculated twice a week according to the following formula: TV (mm^3)=(a (mm)×b^2 (mm^2))/2. The volume of a tumor before administration to each animal was set to the value measured at the time of group assignment. Tumor removal and measurement of body weight: After the observation period, animals were anesthetized by inhalation of isoflurane. After the tumor was extracted, the weight of the removed tumor was recorded. The tumor growth inhibition rate (IR) was calculated using the following formula: IR (%)=(1-T/C)×100, where T is a mean tumor weight in the test substance group, and positive substance group, and C is a mean tumor weight in the negative control group."}}, "data": [{"smiles": "CC(C)(C)/[N+]([O-])=C/c1ccc(S(=O)(=O)O)cc1S(=O)(=O)O", "note": "[OKN-007, Disodium 4-[(Z)-[tert-butyl(oxido)azaniumylidene]methyl]benzene-1,3-disulfonate]", "values": [{"measurement": "Necrosis grade + : number of animals", "setting": "[1]; G2, 150 mg/kg P.O.", "value": 3}, {"measurement": "Necrosis grade ++ (moderate): number of animals", "setting": "[1]; G2, 150 mg/kg P.O.", "value": 2}, {"measurement": "Necrosis grade +++ (marked): number of animals", "setting": "[1]; G2, 150 mg/kg P.O.", "value": 0}, {"measurement": "Necrosis grade ++++ (severe): number of animals", "setting": "[1]; G2, 150 mg/kg P.O.", "value": 0}, {"measurement": "Necrosis grade ± (minimal): number of animals", "setting": "[1]; G2, 150 mg/kg P.O.", "value": 5}, {"measurement": "Necrosis grade + : number of animals", "setting": "[1]; G3, 300 mg/kg P.O.", "value": 2}, {"measurement": "Necrosis grade ++ (moderate): number of animals", "setting": "[1]; G3, 300 mg/kg P.O.", "value": 1}, {"measurement": "Necrosis grade +++ (marked): number of animals", "setting": "[1]; G3, 300 mg/kg P.O.", "value": 0}, {"measurement": "Necrosis grade ++++ (severe): number of animals", "setting": "[1]; G3, 300 mg/kg P.O.", "value": 0}, {"measurement": "Necrosis grade ± (minimal): number of animals", "setting": "[1]; G3, 300 mg/kg P.O.", "value": 7}, {"measurement": "Necrosis grade + : number of animals", "setting": "[1]; G4, 600 mg/kg P.O.", "value": 2}, {"measurement": "Necrosis grade ++ (moderate): number of animals", "setting": "[1]; G4, 600 mg/kg P.O.", "value": 2}, {"measurement": "Necrosis grade +++ (marked): number of animals", "setting": "[1]; G4, 600 mg/kg P.O.", "value": 0}, {"measurement": "Necrosis grade ++++ (severe): number of animals", "setting": "[1]; G4, 600 mg/kg P.O.", "value": 0}, {"measurement": "Necrosis grade ± (minimal): number of animals", "setting": "[1]; G4, 600 mg/kg P.O.", "value": 6}, {"measurement": "Tumor weights (mean)", "setting": "[2]; G2, 150 mg/kg P.O. once a day for 4 weeks", "value": 0.47, "unit": "g"}, {"measurement": "Tumor volume (mean)", "setting": "[2]; G2, 150 mg/kg P.O. once a day, day 1 (before administration)", "value": 99, "unit": "mm^3"}, {"measurement": "Tumor volume (mean)", "setting": "[2]; G2, 150 mg/kg P.O. once a day, day 5 after administration", "value": 152, "unit": "mm^3"}, {"measurement": "Tumor volume (mean)", "setting": "[2]; G2, 150 mg/kg P.O. once a day, day 8 after administration", "value": 200, "unit": "mm^3"}, {"measurement": "Tumor volume (mean)", "setting": "[2]; G2, 150 mg/kg P.O. once a day, day 12 after administration", "value": 240, "unit": "mm^3"}, {"measurement": "Tumor volume (mean)", "setting": "[2]; G2, 150 mg/kg P.O. once a day, day 15 after administration", "value": 243, "unit": "mm^3"}, {"measurement": "Tumor volume (mean)", "setting": "[2]; G2, 150 mg/kg P.O. once a day, day 19 after administration", "value": 306, "unit": "mm^3"}, {"measurement": "Tumor volume (mean)", "setting": "[2]; G2, 150 mg/kg P.O. once a day, day 22 after administration", "value": 376, "unit": "mm^3"}, {"measurement": "Tumor volume (mean)", "setting": "[2]; G2, 150 mg/kg P.O. once a day, day 26 after administration", "value": 466, "unit": "mm^3"}, {"measurement": "Tumor volume (mean)", "setting": "[2]; G2, 150 mg/kg P.O. once a day, day 29 after administration", "value": 603, "unit": "mm^3"}, {"measurement": "Tumor growth inhibition rate (IR)", "setting": "[2]; G2, 150 mg/kg P.O.", "value": 48.9, "unit": "%"}, {"measurement": "Tumor weights (mean)", "setting": "[2]; G3, 300 mg/kg P.O. once a day for 4 weeks", "value": 0.43, "unit": "g"}, {"measurement": "Tumor volume (mean)", "setting": "[2]; G3, 300 mg/kg P.O. once a day, day 1 (before administration)", "value": 99, "unit": "mm^3"}, {"measurement": "Tumor volume (mean)", "setting": "[2]; G3, 300 mg/kg P.O. once a day, day 5 after administration", "value": 146, "unit": "mm^3"}, {"measurement": "Tumor volume (mean)", "setting": "[2]; G3, 300 mg/kg P.O. once a day, day 8 after administration", "value": 172, "unit": "mm^3"}, {"measurement": "Tumor volume (mean)", "setting": "[2]; G3, 300 mg/kg P.O. once a day, day 12 after administration", "value": 182, "unit": "mm^3"}, {"measurement": "Tumor volume (mean)", "setting": "[2]; G3, 300 mg/kg P.O. once a day, day 15 after administration", "value": 212, "unit": "mm^3"}, {"measurement": "Tumor volume (mean)", "setting": "[2]; G3, 300 mg/kg P.O. once a day, day 19 after administration", "value": 254, "unit": "mm^3"}, {"measurement": "Tumor volume (mean)", "setting": "[2]; G3, 300 mg/kg P.O. once a day, day 22 after administration", "value": 310, "unit": "mm^3"}, {"measurement": "Tumor volume (mean)", "setting": "[2]; G3, 300 mg/kg P.O. once a day, day 26 after administration", "value": 390, "unit": "mm^3"}, {"measurement": "Tumor volume (mean)", "setting": "[2]; G3, 300 mg/kg P.O. once a day, day 29 after administration", "value": 460, "unit": "mm^3"}, {"measurement": "Tumor growth inhibition rate (IR)", "setting": "[2]; G3, 300 mg/kg P.O.", "value": 53.3, "unit": "%"}, {"measurement": "Tumor growth inhibition rate (IR)", "setting": "[2]; G3, 300 mg/kg P.O., listed as test substance", "value": 53.5, "unit": "%"}, {"measurement": "Tumor weights (mean)", "setting": "[2]; G4, 600 mg/kg P.O. once a day for 4 weeks", "value": 0.38, "unit": "g"}, {"measurement": "Tumor volume (mean)", "setting": "[2]; G4, 600 mg/kg P.O. once a day, day 1 (before administration)", "value": 99, "unit": "mm^3"}, {"measurement": "Tumor volume (mean)", "setting": "[2]; G4, 600 mg/kg P.O. once a day, day 5 after administration", "value": 149, "unit": "mm^3"}, {"measurement": "Tumor volume (mean)", "setting": "[2]; G4, 600 mg/kg P.O. once a day, day 8 after administration", "value": 176, "unit": "mm^3"}, {"measurement": "Tumor volume (mean)", "setting": "[2]; G4, 600 mg/kg P.O. once a day, day 12 after administration", "value": 179, "unit": "mm^3"}, {"measurement": "Tumor volume (mean)", "setting": "[2]; G4, 600 mg/kg P.O. once a day, day 15 after administration", "value": 209, "unit": "mm^3"}, {"measurement": "Tumor volume (mean)", "setting": "[2]; G4, 600 mg/kg P.O. once a day, day 19 after administration", "value": 249, "unit": "mm^3"}, {"measurement": "Tumor volume (mean)", "setting": "[2]; G4, 600 mg/kg P.O. once a day, day 22 after administration", "value": 288, "unit": "mm^3"}, {"measurement": "Tumor volume (mean)", "setting": "[2]; G4, 600 mg/kg P.O. once a day, day 26 after administration", "value": 331, "unit": "mm^3"}, {"measurement": "Tumor volume (mean)", "setting": "[2]; G4, 600 mg/kg P.O. once a day, day 29 after administration", "value": 407, "unit": "mm^3"}, {"measurement": "Tumor growth inhibition rate (IR)", "setting": "[2]; G4, 600 mg/kg P.O.", "value": 58.7, "unit": "%"}]}]}
